Test results taken from patent US20150366890A1, “COMPOSITIONS AND METHODS FOR TREATING FUNGAL INFECTIONS” (TRUSTEES OF BOSTON UNIVERSITY, priority 2013, published 2015).
Where two headings read alike, the source gives them in different places.

Experiments:
Format in all cases: cell-based
S. cerevisiae = test: Mitochondrial activity by MitoTracker Red fluorescence
Method: It was next sought to assess the mitochondrial activity of AF-treated fungal cells. Yhe MitoTracker Red dye, which enters the mitochondrial matrix by utilizing the proton motive force and thus labels metabolically active mitochondria in viable cells was used (Arita et al., 2006; Tomas et al., 2011). Exponential phase S. cerevisiae were incubated in glucose-free synthetic complete (SC) media for 30 min and then switched to SC containing 2% glucose or non-fermentable acetate for 1.5 hours.
(§1) Overnight yeast cultures were diluted into the indicated media and grown to an OD600 of 0.2, at which point the AFs were added. Colony forming units (CFU) were measured by plating six serial dilutions onto YPD agar plates. Cells treated with MCZ were washed before serial dilution to stop growth inhibition associated with high concentrations of MCZ. CFU were counted after three days of incubation on agar plates. When indicated, thiourea (Fluka) was added 30 min prior to the addition of AFs. HPF (10 μM) (Invitrogen) and Mito Tracker (1 μM) (Invitrogen) dyes were added to PBS-washed cells at the indicated time points and incubated for 30 min prior to flow cytometry measurements, which were taken on the FACSCalibur (Becton-Dickinson). All experiments described in this section were conducted in 0.5 ml of SDC in 24-well plates incubated at 900 rpm and 37° C. for C. albicans and 30° C. and 300 rpm for S. cerevisiae. TUNEL assays were conducted as previously described (Ribeiro et al., 2006) and are described in detail in the TUNEL section of the Experimental Procedures.

[1] = system: C. albicans wildtype and DNA repair mutants; test: Fungicidal killing, CFU assay; conditions: C. albicans rad50/rad50 and rad52/rad52, 3 hours of drug exposure
Method: Overnight yeast cultures were diluted into the indicated media and grown to an OD600 of 0.2, at which point the AFs were added. Colony forming units (CFU) were measured by plating six serial dilutions onto YPD agar plates.
as §1

[2] = system: S. cerevisiae wildtype and deletion strains

Row | Structure (SMILES) | MitoTracker fluorescence in acetate-incubated vs glucose-incubated cells (S. cerevisiae; S. cerevisiae, SC with non-fermentable acetate, 1.5 hours) | susceptibility of DSBR mutants compared to wildtype [1] | additive resistance on deleting the remaining citrate synthases in the cit3 background ([2]; S. cerevisiae CIT1/CIT2 deletions in cit3 background) | CFU (24-well colony forming assay), AF susceptibility vs wildtype ([2]; S. cerevisiae PAB103, SDH2 deletion) | CFU (24-well colony forming assay), AF susceptibility vs wildtype ([2]; S. cerevisiae PAB106, FMS1 deletion) | CFU (24-well colony forming assay), AF susceptibility vs wildtype ([2]; S. cerevisiae PAB107, NDE1 deletion) | CFU (24-well colony forming assay), AF susceptibility vs wildtype ([2]; S. cerevisiae PAB112, MNE1 deletion) | CFU (24-well colony forming assay), AF susceptibility vs wildtype ([2]; S. cerevisiae PAB113, FUM1 deletion) | CFU (24-well colony forming assay), AF susceptibility vs wildtype ([2]; S. cerevisiae PAB114, TPK2 deletion) | CFU (24-well colony forming assay), AF susceptibility vs wildtype ([2]; S. cerevisiae PAB119, CIT2 deletion) | CFU (24-well colony forming assay), AF susceptibility vs wildtype ([2]; S. cerevisiae PAB121, SDH1 deletion) | CFU (24-well colony forming assay), AF susceptibility vs wildtype ([2]; S. cerevisiae PAB122, TPK3 deletion) | CFU (24-well colony forming assay), AF susceptibility vs wildtype ([2]; S. cerevisiae PAB124, TPK1 deletion) | CFU (24-well colony forming assay), AF susceptibility vs wildtype ([2]; S. cerevisiae PAB132, CIT3 deletion) | CFU (24-well colony forming assay), AF susceptibility vs wildtype ([2]; S. cerevisiae PAB135, NDI1 deletion) | CFU (24-well colony forming assay), AF susceptibility vs wildtype ([2]; S. cerevisiae PAB145, CIT1 deletion) | CFU (24-well colony forming assay), AF susceptibility vs wildtype ([2]; S. cerevisiae PAB168, RAS1 deletion) | CFU (24-well colony forming assay), AF susceptibility vs wildtype ([2]; S. cerevisiae PAB171, RAS2 deletion) | reduction of killing at 3 hours by thiourea ([2]; S. cerevisiae, 50 mM thiourea for 30 minutes prior to the addition of AF drugs) [fold] | increase of MitoTracker fluorescence (S. cerevisiae; drug added to glucose-incubated (SC, 2% glucose) S. cerevisiae) [fold]
1 | CC(=O)O [acetate] | approximately 5 fold |  |  |  |  |  |  |  |  |  |  |  |  |  |  |  |  |  |  | 
2 | Cc1cc(C2CCCCC2)n(O)c(=O)c1 [CIC, cicloplrox olamine] |  | particularly susceptible | not observed | Resistant (″Resistant″ or ″Sensitive″ indicate at least a 5-fold CFU difference from wildtype at the final time point) | Normal | Resistant (″Resistant″ or ″Sensitive″ indicate at least a 5-fold CFU difference from wildtype at the final time point) | Resistant (″Resistant″ or ″Sensitive″ indicate at least a 5-fold CFU difference from wildtype at the final time point) | Resistant (″Resistant″ or ″Sensitive″ indicate at least a 5-fold CFU difference from wildtype at the final time point) | Normal | Resistant (″Resistant″ or ″Sensitive″ indicate at least a 5-fold CFU difference from wildtype at the final time point) | Resistant (″Resistant″ or ″Sensitive″ indicate at least a 5-fold CFU difference from wildtype at the final time point) | Resistant (″Resistant″ or ″Sensitive″ indicate at least a 5-fold CFU difference from wildtype at the final time point) | Resistant (″Resistant″ or ″Sensitive″ indicate at least a 5-fold CFU difference from wildtype at the final time point) | Resistant (″Resistant″ or ″Sensitive″ indicate at least a 5-fold CFU difference from wildtype at the final time point) | Resistant (″Resistant″ or ″Sensitive″ indicate at least a 5-fold CFU difference from wildtype at the final time point) | Resistant (″Resistant″ or ″Sensitive″ indicate at least a 5-fold CFU difference from wildtype at the final time point) | Resistant (″Resistant″ or ″Sensitive″ indicate at least a 5-fold CFU difference from wildtype at the final time point) | Resistant (″Resistant″ or ″Sensitive″ indicate at least a 5-fold CFU difference from wildtype at the final time point) | ~15 | 10
